Experimental data from BigSolDB 2.1.

C=CC(=O)Nc1cc(Nc2nccc(-c3cn(C)c4ccccc34)n2)c(OC)cc1N(C)CCN(C)C
Conditions	solubility (mole fraction)
in PEG-400, 298.2 K	0.00214
in PEG-400, 303.2 K	0.00307
in PEG-400, 308.2 K	0.00421
in PEG-400, 313.2 K	0.00583
in PEG-400, 318.2 K	0.00733

solubility (mole fraction)
Conditions	in dichloromethane	in ethanol	in ethyl acetate	in isopropyl myristate	in propylene glycol	in transcutol	in water
298.2 K	0.000939	0.000472	0.00129	0.000794	0.000766	0.00144	1.85e-05
303.2 K	0.0014	0.000703	0.00174	0.00122	0.00106	0.0022	2.24e-05
308.2 K	0.00196	0.000989	0.00241	0.00186	0.00143	0.00337	2.72e-05
313.2 K	0.0028	0.00131	0.0031	0.00263	0.00206	0.0046	3.18e-05
318.2 K	0.00366	0.00176	0.00398	0.00344	0.00265	0.00638	3.69e-05
